Data on five compounds can be found in patent publication US9512139B2, “Conformationally constrained, fully synthetic macrocyclic compounds” (POLYPHOR AG, priority 2009, dated 2016).

The nature of series [1]: in vitro. Type of series: in vitro ADME, human. Conditions: human, plasma, 10 µM; for Plasma Stability 240 min hum [% remain.]: 4 h.
Series [2] is described as follows: in vitro. It is filed as in vitro ADME, mouse. Conditions: both, CD-1, mouse, plasma, 10 µM; for Plasma Stability 240 min mouse [% remain.]: 4 h.
Series [3] in a line: Metabolic stability assay, human microsomes. Type of series: in vitro ADME. Particulars: human, microsomes; for half-life at 10 µM: both sexes; for Metabolic Stability 60 min hum [% remain.] / Metabolic Stability T½ [min] hum: both, 10 µM; for Metabolic Stability 60 min hum [% remain.]: 1 h.
A short description of series [4]: Metabolic stability assay, CD-1 mouse microsomes. Type of series: in vitro ADME. Particulars: both, CD-1, mouse, microsomes, 10 µM; for Metabolic Stability 60 min mouse [% remain.]: 1 h.
The nature of series [5]: Pharmacokinetic study after single i.v. and p.o. administration in male SD rats. It is filed as in vivo. Conditions: rat; for Cmax / Tmax / C0 / half-life / bioavailability: male, SD, plasma; for C0: extrapolated to tzero; for half-life: read-out: T1/2 (terminal) (converted). On the procedure:
5. Pharmacokinetic Study (PK) Analysis
Pharmacokinetic analyses after single intravenous (i.v.) and two different peroral (p.o.) administrations were performed for the test compounds. 240 grams (±10 gram) male SD rats were catheterized and used in the study. The vehicle, Solutol HS-15/0.9% saline (5:95), was added to give a final concentration of 0.33 mg/ml of the compounds for i.v. application, and 0.5 or 2.0 mg/ml for p.o. applications. The volumes used for applications were 3 ml/kg i.v. and 10 ml/kg p.o. resulting in a final dose of 1 mg/kg for the intravenous dose and 5 or 20 mg/kg for the peroral doses.
Blood samples were withdrawn via the catheter at 1) predose, 5, 15, 30, 60, 120, 240, and 480 minutes for the i.v. application and 2) predose, 15, 30, 60, 120, 240, 480 and 720 minutes for the p.o. applications. Plasma was prepared by centrifugation of heparinized whole blood. Plasma samples (˜120 μl each time point, Li-Heparin, 20 IE/ml) were stored at −80° C. until HPLC-MSMS analysis.
Preparation of the Plasma Calibration Samples:
“Blank” rat plasma from untreated animals was used. Aliquots of plasma of 50 μL each were spiked with Internal Standard (ISTD) and with known amounts test compounds in order to obtain 11 plasma calibration samples in the range 0.25-4000 ng/mL.
Preparation of Plasma Samples:
To 50 μL of sample from treated animals 20 μL of internal standard were added. After mixing with 200 μL of acetonitrile, 2% HCOOH were added and each sample was vortexed for several seconds. Precipitated material was removed by centrifugation for 10 min (13200 rpm), the supernatant removed and dried under a constant flow of N2 (Porvair, MiniVap). To reconstitute the dried samples, 200 μL of [DMSO/acetonitrile/H2O, 4/4/2 (v/v/v)+2% HCOOH] were added and the sample was shaken for at least 5 minutes.
LC-MSMS Analysis of Samples:
Reconstituted samples were analysed by HPLC/MSMS on a reverse phase analytical column (BEH C18, 100×2.1 mm, 1.7 μm, Waters). Mobile phase A: H2O/acetonitrile (95:5, v:v) 0.1% formic acid, mobile phase B: Acetonitrile/H2O (95:5, v:v) 0.1% formic acid. Compounds were eluted from the column by using a gradient from 1% B to 60% B in 2.5 min.).
Pharmacokinetic Evaluation:
PK analysis was performed on mean values (generally n=3) using WinNonLin software (Version 5.3, Pharsight Corporation). The area under the curve AUC was calculated by the linear trapezoidal rule (linear interpolation, uniform weighting). AUC(t-∞) was estimated as Ct/b (b: elimination rate constant). […] the sum of AUC(0-t) and AUC(t-∞). Elimination half-life was calculated by the linear regression on at least three data points during the elimination phase. The time intervals selected for the half-life determinations were evaluated by the correlation coefficient (r^2), which should be at least above 0.85 and ideally above 0.96.
In case of i.v. administration the initial concentration at tzero was determined by extrapolation of the curve through the first two time points. Finally bioavailability after p.o. administration was calculated from the dose normalized AUC(0-∞) ration after p.o. versus i.v. administration.

Series [6] can be described thus: Metabolic stability assay, rat microsomes (values in parentheses). It is filed as in vitro ADME. Conditions: value in parentheses.

Read-outs that look alike come from different tables or passages of the source. A value given as a limit tells only on which side of the number the result lay.

Broadly, the Cmax is the highest concentration seen after dosing. The Tmax is the time from dosing to the highest level. The term bioavailability denotes the share of a dose that reaches the circulation, judged against a reference dose that is usually intravenous.
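Wherever Plasma Stability 240 min mouse [% remain.] is given: sodium citrate stabilized mouse plasma, parent compound quantified by HPLC/MS/MS relative to its peak area at time zero, run in triplicate.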
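Wherever Plasma Stability T½ [min] mouse is given: sodium citrate stabilized mouse plasma, parent compound quantified by HPLC/MS/MS relative to its peak area at time zero, run in triplicate.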

Consider `CN1CCC[C@H](N)C(=O)N2C[C@@H](Oc3ccccc3)C[C@H]2COc2cccc(c2)C1=O` [Ex. 561, (4S,6S,10S)-10-amino-14-methyl-6-phenoxy-2-oxa-8,14-diazatricyclo[14.3.1.0^4,8]icosa-1(20),16,18-triene-9,15-dione], for which, in the series “in vitro [1]”, the Plasma Stability T½ [min] hum was above 240 min and the “Plasma Stability 240 min hum [% remain.]” value is 99 % remain. In the series “in vitro [2]”, the Plasma Stability T½ [min] mouse is above 240 min and the “Plasma Stability 240 min mouse [% remain.]” value was 100 % remain. Also, in series [3], the half-life at 10 µM came out at 39 min and the “Metabolic Stability 60 min hum [% remain.]” value is 42 % remain. Besides, in series [4], the Metabolic Stability T½ [min] mouse is above 60 min and the “Metabolic Stability 60 min mouse [% remain.]” value came out at 79 % remain. Moreover, in series [5] (iv, 1 mg/kg), the Cmax worked out at 184 ng/mL, the Tmax amounted to 4.8 min, the C0 is 240 ng/mL and the half-life is 127 min. In series [5] (iv, 1 mg/kg), the “AUC(t-∞) dose normalized” value is 219.89 kg·ng·h/mL/mg, the Cmax dose normalized came to 183.67 kg·ng/mL/mg and the “V (terminal)” value is 13831.40 mL/kg. Further, in series [5] (po, 5 mg/kg), the Cmax amounted to 67 ng/mL, the Tmax was 30 min, the bioavailability worked out at 10.9% and the half-life is 180 min. Further, in series [5] (po, 5 mg/kg), the “AUC(t-∞) dose normalized” value was 24.00 kg·ng·h/mL/mg and the Cmax dose normalized amounted to 13.40 kg·ng/mL/mg. Also, in series [5] (po, 20 mg/kg), the peak level (Cmax) was 248 ng/mL, the Tmax came out at 15 min, the bioavailability stood at 16.8% and the half-life was 163 min. In series [5] (po, 20 mg/kg), the “AUC(t-∞) dose normalized” value stood at 36.88 kg·ng·h/mL/mg and the Cmax dose normalized came to 12.40 kg·ng/mL/mg. Moreover, the “Metabolic Stability 60 min (rat) [% remain.]” value in series [6] turned out to be 53 % remain. In addition, in series [6] (read-out: Metabolic Stability T½ [min] (rat)), the half-life at 10 µM amounted to 56 min.

Regarding `CN1CCC[C@H](N)C(=O)N2C[C@@H](OCc3ccccc3)C[C@H]2COc2cccc(c2)C1=O` [Ex. 568, (4S,6S,10S)-10-amino-6-(benzyloxy)-14-methyl-2-oxa-8,14-diazatricyclo[14.3.1.0^4,8]icosa-1(20),16,18-triene-9,15-dione], in the series “in vitro [1]”, the Plasma Stability T½ [min] hum was above 240 min and the “Plasma Stability 240 min hum [% remain.]” value came out at 97 % remain. Further, in “in vitro [2]”, the Plasma Stability T½ [min] mouse was above 240 min and the “Plasma Stability 240 min mouse [% remain.]” value worked out at 89 % remain. Moreover, in series [3], the Metabolic Stability T½ [min] hum is above 60 min and the “Metabolic Stability 60 min hum [% remain.]” value turned out to be 53 % remain. Also, in series [4], the Metabolic Stability T½ [min] mouse was above 60 min and the “Metabolic Stability 60 min mouse [% remain.]” value is reported as 60 % remain. Besides, in series [5] (iv, 1 mg/kg), the peak level (Cmax) was 195 ng/mL, the Tmax was found to be 4.8 min, the C0 was 285 ng/mL and the half-life was 100 min. In addition, in series [5] (iv, 1 mg/kg), the “AUC(t-∞) dose normalized” value was 167.93 kg·ng·h/mL/mg, the Cmax dose normalized was determined as 194.67 kg·ng/mL/mg and the “V (terminal)” value is on record as 14320.56 mL/kg. Besides, in series [5] (po, 5 mg/kg), the concentration peaked (Cmax) at 64.3 ng/mL, the Tmax stood at 15 min, the bioavailability is 17.8% and the half-life was 115 min. Moreover, in series [5] (po, 5 mg/kg), the “AUC(t-∞) dose normalized” value was found to be 29.83 kg·ng·h/mL/mg and the Cmax dose normalized was found to be 12.87 kg·ng/mL/mg. Besides, in series [5] (po, 20 mg/kg), the concentration peaked (Cmax) at 380 ng/mL, the Tmax is 15 min, the bioavailability is 21.6% and the half-life was 124 min. In series [5] (po, 20 mg/kg), the “AUC(t-∞) dose normalized” value came to 36.22 kg·ng·h/mL/mg and the Cmax dose normalized stood at 18.98 kg·ng/mL/mg. Further, in series [6], the “Metabolic Stability 60 min (rat) [% remain.]” value came out at 57 % remain and the “Metabolic Stability T½ [min] (rat)” value was 60 (60) min.

Consider `CN1CCC[C@H](NC(=O)CC(C)(C)C)C(=O)N2C[C@@H](O)C[C@H]2COc2cccc(c2)C1=O` [Ex. 571, N-[(4S,6S,10S)-6-hydroxy-14-methyl-9,15-dioxo-2-oxa-8,14-diazatricyclo[14.3.1.0^4,8]icosa-1(20),16,18-trien-10-yl]-3,3-dimethylbutanamide], for which, in the series “in vitro [1]”, the Plasma Stability T½ [min] hum is above 240 min and the “Plasma Stability 240 min hum [% remain.]” value is listed as 86 % remain. Besides, in the series “in vitro [2]”, the Plasma Stability T½ [min] mouse is above 240 min and the “Plasma Stability 240 min mouse [% remain.]” value stood at 89 % remain. Moreover, in series [3], the Metabolic Stability T½ [min] hum was above 60 min and the “Metabolic Stability 60 min hum [% remain.]” value was found to be 90 % remain. Also, in series [4], the Metabolic Stability T½ [min] mouse is above 60 min and the “Metabolic Stability 60 min mouse [% remain.]” value is 74 % remain. In series [5] (iv, 1 mg/kg), the Cmax turned out to be 644 ng/mL, the Tmax was found to be 4.8 min, the C0 is 932 ng/mL and the half-life was 102 min. Moreover, in series [5] (iv, 1 mg/kg), the “AUC(t-∞) dose normalized” value came to 321.32 kg·ng·h/mL/mg, the Cmax dose normalized was 643.67 kg·ng/mL/mg and the “V (terminal)” value was found to be 7618.59 mL/kg. In addition, in series [5] (po, 5 mg/kg), the peak level (Cmax) was 340 ng/mL, the Tmax was 15 min, the bioavailability is 29% and the half-life was 131 min. In addition, in series [5] (po, 5 mg/kg), the “AUC(t-∞) dose normalized” value amounted to 93.34 kg·ng·h/mL/mg and the Cmax dose normalized came to 68.07 kg·ng/mL/mg. In series [5] (po, 20 mg/kg), the peak level (Cmax) was 1520 ng/mL, the Tmax stood at 15 min, the bioavailability was 27.2% and the half-life was 138 min. Also, in series [5] (po, 20 mg/kg), the “AUC(t-∞) dose normalized” value stood at 87.49 kg·ng·h/mL/mg and the Cmax dose normalized amounted to 75.83 kg·ng/mL/mg. Besides, in series [6], the “Metabolic Stability 60 min (rat) [% remain.]” value is 88 % remain and the “Metabolic Stability T½ [min] (rat)” value is reported as 60 (60) min.

For `CO[C@H]1C[C@H]2COc3cccc(c3)C(=O)N(C)CCC[C@H](NC(=O)CC(C)(C)C)C(=O)N2C1` [Ex. 572, N-[(4S,6S,10S)-6-methoxy-14-methyl-9,15-dioxo-2-oxa-8,14-diazatricyclo[14.3.1.0^4,8]icosa-1(20),16,18-trien-10-yl]-3,3-dimethylbutanamide], in “in vitro [1]”, the Plasma Stability T½ [min] hum is above 240 min and the “Plasma Stability 240 min hum [% remain.]” value is given as 85 % remain. In the series “in vitro [2]”, the Plasma Stability T½ [min] mouse was above 240 min and the “Plasma Stability 240 min mouse [% remain.]” value is 100 % remain. Further, in series [3], the half-life at 10 µM was 54 min and the “Metabolic Stability 60 min hum [% remain.]” value was found to be 49 % remain. For the same compound, in series [4], the Metabolic Stability T½ [min] mouse was above 60 min and the “Metabolic Stability 60 min mouse [% remain.]” value worked out at 54 % remain. In addition, in series [6], the “Metabolic Stability 60 min (rat) [% remain.]” value amounted to 92 % remain and the “Metabolic Stability T½ [min] (rat)” value is 60 (60) min.

In the case of `CN1CCC[C@H](NC(=O)Cc2ccccc2)C(=O)N2C[C@@H](O)C[C@H]2COc2cccc(c2)C1=O` [Ex. 574, N-[(4S,6S,10S)-6-hydroxy-14-methyl-9,15-dioxo-2-oxa-8,14-diazatricyclo[14.3.1.0^4,8]icosa-1(20),16,18-trien-10-yl]-2-phenylacetamide], in “in vitro [1]”, the Plasma Stability T½ [min] hum was above 240 min and the “Plasma Stability 240 min hum [% remain.]” value is given as 91 % remain. In addition, in the series “in vitro [2]”, the Plasma Stability T½ [min] mouse was above 240 min and the “Plasma Stability 240 min mouse [% remain.]” value is given as 95 % remain. Moreover, in series [3], the Metabolic Stability T½ [min] hum was above 60 min and the “Metabolic Stability 60 min hum [% remain.]” value amounted to 94 % remain. Further, in series [4], the Metabolic Stability T½ [min] mouse was above 60 min and the “Metabolic Stability 60 min mouse [% remain.]” value was found to be 93 % remain. Also, in series [6], the “Metabolic Stability 60 min (rat) [% remain.]” value is recorded as 92 % remain and the “Metabolic Stability T½ [min] (rat)” value is 60 (60) min.
